Source: PMC8400033, “A Multicomponent Protocol for the Synthesis of Highly Functionalized γ-Lactam Derivatives and Their Applications as Antiproliferative Agents” (Pharmaceuticals, 2021)
Where two headings read alike, the source gives them in different places.

Experiments:
[1] = system: A549 (carcinomic human alveolar basal epithelial cell); test: CCK-8 antiproliferative assay, A549 cell line; type: cell-based
Description: (§1) In vitro cytotoxicity of the γ-lactam derivatives was evaluated by testing their antiproliferative activities against several human cancer cell lines. Cell counting kit (CCK-8) assay was used for the evaluation of growth inhibition.
(§2) All stock solutions of the investigated compounds were prepared by dissolving the powdered materials in appropriate amounts of DMSO. The final concentration of DMSO never exceeded 5% (v/v) in reactions. The stock solution was stored at 5 °C until it was used.
(§3) All were supplemented with 10% of fetal bovine serum (FBS) (Sigma-Aldrich, Madrid, Spain) and with 1% of NORMOCIN solution (Thermo Fisher, Waltham, Massachusetts, MA, USA). […] For cytotoxicity experiments, A549 cells were seeded in 96-well plates at a density of 2.5–3 × 10^3 cells per well and incubated overnight to achieve 70% of confluence at the time of exposition to the cytotoxic compound.
(§4) Both were supplemented with 10% of fetal bovine serum (FBS) (Sigma-Aldrich, Spain) and with 1% of NORMOCIN solution (Thermo Fisher, Waltham, Massachusetts, MA, USA). […] For cytotoxicity experiments, A549 cells were seeded in 96-well plates at a density of 2.5–3 × 10^3 cells per well and incubated overnight to achieve 70% of confluence at the time of exposition to the cytotoxic compound.

[2] = system: RKO (human colon epithelial carcinoma); test: CCK-8 antiproliferative assay, RKO cell line; type: cell-based
Description: as §1, §2, §3

[3] = system: MRC5 non-malignant lung fibroblasts; test: CCK-8 assay on non-malignant cells for selective toxicity; type: cell-based; conditions: Homo sapiens
Description: as §1, §2, §3, §4

[4] = system: SKOV3 (human ovarian carcinoma); test: CCK-8 antiproliferative assay, SKOV3 cell line
Description: as §1, §2, §3

[5] = Solubility in solvents compatible with in vitro assays; type: physicochemical; conditions: in words
[6] = Homo sapiens, A549, A549 cell line, CCK-8, read-out: IC50 A549
[7] = MRC5 non-malignant lung fibroblasts, CCK-8, read-out: IC50 MRC5
[8] = Homo sapiens, SK-OV-3, read-out: IC50 SKOV3, SKOV3 cell line, CCK-8
[9] = Homo sapiens, A549, read-out: IC50 A549
[10] = Homo sapiens, SK-OV-3, read-out: IC50 SKOV3
[11] = Homo sapiens, A549, read-out: IC50 of individual enantiomers of 4v

Compound | IC50 [1, 6] | IC50 [3, 7] | IC50 [4, 8] | further results
Cc1ccc(NC2=CC(c3ccc([N+](=O)[O-])cc3)N(c3ccc(C)cc3)C2=O)cc1 (stereo not drawn) [4g] | 17.1 ± 1.58 µM | 26.6 ± 2.89 µM | 22.9 ± 0.63 µM | IC50 [2]: 23.8 ± 2.53 µM
CCOP(=O)(C[C@H]1C[C@@H](Nc2ccc(C)cc2)C(=O)N1c1ccc(C)cc1)OCC [18b] |  |  |  | IC50 [1, 9]: 4.25 ± 0.65 µM; IC50 [2]: > 50 µM; IC50 ([3]; MRC5, read-out: IC50 MRC5): > 50 µM; IC50 [4, 10]: > 50 µM
CCOP(=O)(CC1C=C(Nc2ccc(C)cc2)C(=O)N1c1ccc(C)cc1)OCC (stereo not drawn) [4v] |  |  |  | IC50 [1, 9]: 11.3 ± 1.8 µM; IC50 [2]: > 50 µM; IC50 ([3]; MRC5, read-out: IC50 MRC5): > 50 µM; IC50 [4, 10]: > 50 µM
Cc1ccc(NC2=CC(C(C)C)N(c3ccc(C)cc3)C2=O)cc1 (stereo not drawn) [4o] | 11.1 ± 0.71 µM | > 50 µM | > 50 µM | 
O=C1C(Nc2cccc(C(F)(F)F)c2)=CCN1c1cccc(C(F)(F)F)c1 [11a] | 22.9 ± 1.13 µM | > 50 µM | > 50 µM | melting point: 160 to 162 °C
CCOP(=O)(OCC)C1=C(Nc2ccc(C)cc2)C(=O)N(c2ccc(C)cc2)C1 [5d] |  |  |  | IC50 [1, 9]: > 50 µM; IC50 [2]: > 50 µM; IC50 ([3]; MRC5, read-out: IC50 MRC5): > 50 µM; IC50 [4, 10]: > 50 µM
COc1ccc(NC2=CC(c3ccccc3)N(c3ccc(OC)cc3)C2=O)cc1 (stereo not drawn) [6a] | 12 ± 1.96 µM | > 50 µM | 6.84 ± 0.59 µM | 
Cc1ccc(NC2=CC(c3ccc(C(F)(F)F)cc3)N(c3ccc(C)cc3)C2=O)cc1 (stereo not drawn) [4i] | > 50 µM |  | > 50 µM | IC50 [2]: > 50 µM
O=C1C(Nc2ccc(Br)cc2)=CC(c2ccc(C(F)(F)F)cc2)N1c1ccc(Br)cc1 (stereo not drawn) [8b] | > 50 µM |  | > 50 µM | IC50 [2]: > 50 µM
Cc1ccc(NC2=CC(c3ccc4ccccc4c3)N(c3ccc(C)cc3)C2=O)cc1 (stereo not drawn) [4m] | 12.1 ± 0.74 µM | 21.3 ± 0.74 µM | 30.5 ± 1.34 µM | 
CCOC(=O)[C@]1(C)C[C@@H](Nc2ccc(C)cc2)C(=O)N1c1ccc(C)cc1 (relative stereo) [compound 17, Ethyl (2S*, 4R*)-2-methyl-5-oxo-1-(p-tolyl)-4-(p-tolylamino)-pyrrolidine-2-carboxylate] | > 50 µM |  | > 50 µM | melting point: 173 to 174 °C
Cc1ccc(NC2=CC(C)N(c3ccc(C)cc3)C2=O)cc1 (stereo not drawn) [4n] | 15.7 ± 0.92 µM | > 50 µM | 29.2 ± 1 µM | 
O=C1C(Nc2ccc(Cl)cc2)=CC(c2ccc([N+](=O)[O-])cc2)N1c1ccc(Cl)cc1 (stereo not drawn) [compound 7] | 17.2 ± 2.1 µM | > 50 µM | > 50 µM | 
Cc1ccc(NC2=C(P(=O)(c3ccccc3)c3ccccc3)CN(c3ccc(C)cc3)C2=O)cc1 [5e] |  |  |  | Solubility in the solvents compatible with the tests for in vitro assays [5]: low solubility
Cc1ccc(N[C@@H]2C[C@H](C(F)(F)F)N(c3ccc(C)cc3)C2=O)cc1 [18a] | 3.27 ± 0.65 µM | > 50 µM | > 50 µM | 
COc1cccc2c1C(=O)c1c(O)c3c(c(O)c1C2=O)C[C@@](O)(C(=O)CO)C[C@@H]3O[C@H]1C[C@H](N)[C@H](O)[C@H](C)O1 [Doxorubicin, reference compound] |  | > 50 µM |  | 
Cc1ccc(NC2=CC(c3cccs3)N(c3ccc(C)cc3)C2=O)cc1 (stereo not drawn) [4l] | 12.7 ± 1.07 µM | > 50 µM | 12.7 ± 1.83 µM | 
O=C1C(Nc2cccc(C(F)(F)F)c2)=CC(c2ccc([N+](=O)[O-])cc2)N1c1cccc(C(F)(F)F)c1 (stereo not drawn) [11b] | 2 ± 0.78 µM | 44.6 ± 1.16 µM | 8.5 ± 0.54 µM | 
Cc1ccc(NC2=CC(c3ccccc3C)N(c3ccc(C)cc3)C2=O)cc1 (stereo not drawn) [4e] | 41.3 ± 1.29 µM | > 50 µM | > 50 µM | 
O=C1C(Nc2ccc3ccccc3n2)=CC(c2ccc([N+](=O)[O-])cc2)N1c1ccc2ccccc2n1 (stereo not drawn) [12a] | 9.25 ± 1.49 µM | > 50 µM | > 50 µM | Cytotoxic activity against SKOV3 cell line, in words [4]: No activity
CCOP(=O)(C[C@H]1C=C(Nc2ccc(C)cc2)C(=O)N1c1ccc(C)cc1)OCC [(R)-4v] |  |  |  | IC50 [1, 11]: 9.23 ± 1.68 µM
CCOP(=O)(CC1=C(C)C(C)(Nc2ccc(C)cc2)C(=O)N1c1ccc(C)cc1)OCC (stereo not drawn) [compound 19, Diethyl ((3,4-dimethyl-5-oxo-1-(p-tolyl)-4-(p-tolylamino)-4,5-dihydro-1H-pyrrol-2-yl)methyl)phosphonate] |  |  |  | IC50 [1, 9]: 3.65 ± 0.25 µM; IC50 [2]: > 50 µM; IC50 ([3]; MRC5, read-out: IC50 MRC5): > 50 µM; IC50 [4, 10]: > 50 µM
Cc1ccc(NC2=CCN(c3ccc(C)cc3)C2=O)cc1 [4a, 1-(p-Tolyl)-3-(p-tolylamino)-1,5-dihydro-2H-pyrrol-2-one] |  | > 50 µM |  | melting point: 178 to 180 °C; Cytotoxic activity against SKOV3 cell line, in words [4]: did not show activity; IC50 [4, 10]: > 50 µM
Cc1ccc(NC2=CC(c3cccc([N+](=O)[O-])c3)N(c3ccc(C)cc3)C2=O)cc1 (stereo not drawn) [4h] | 7.33 ± 0.57 µM | 27.2 ± 1.24 µM | 27.7 ± 1.32 µM | 

Compound | IC50 [1, 6] | IC50 [3, 7] | IC50 [4, 8] | further results
Cc1ccc(NC2=CC(c3ccc4ccn(C)c4c3)N(c3ccc(C)cc3)C2=O)cc1 (stereo not drawn) [4j] | 19.3 ± 0.7 µM | > 50 µM | > 50 µM | 
CCOC(=O)C1(C)C=C(Nc2ccc(C)cc2)C(=O)N1c1ccc(C)cc1 (stereo not drawn) [compound 16, Ethyl 2-methyl-5-oxo-1-(p-tolyl)-4-(p-tolylamino)-2,5-dihydro-1H-pyrrole-2-carboxylate] | 14 ± 1.05 µM | > 50 µM | > 50 µM | IC50 [2]: > 50 µM; melting point: 188 to 190 °C (dec.)
Cc1ccc(/N=C(/C=C/C=C/c2ccccc2)C(=O)Nc2ccc(C)cc2)cc1 [20a, (2Z, 3E, 5E)-6-Phenyl-N-(p-tolyl)-2-(p-tolylimino)hexa-3,5-dienamide] | 6.9 ± 0.73 µM | > 50 µM | > 50 µM | 
Cc1ccc(/N=C2/C=C(c3ccccc3)N(c3ccc(C)cc3)C2=O)cc1 [compound 21, (Z)-5-phenyl-1-(p-tolyl)-3-(p-tolylimino)-1,3-dihydro-2H-pyrrol-2-one] | 0.6 ± 0.08 µM | 6.12 ± 0.76 µM | 16.7 ± 1.1 µM | melting point: 207 °C (dec.)
Cc1ccc(NC2=CC(c3c(F)c(F)c(F)c(F)c3F)N(c3ccc(C)cc3)C2=O)cc1 (stereo not drawn) [4t] | 33.5 ± 1.68 µM | > 50 µM | > 50 µM | IC50 [2]: > 50 µM
CC1=C(Nc2ccc(C)cc2)C(=O)N(c2ccc(C)cc2)C1c1ccc([N+](=O)[O-])cc1 (stereo not drawn) [5a] | 2.05 ± 0.23 µM | > 50 µM | > 50 µM | 
Cc1ccc(NC2=CC(c3ccco3)N(c3ccc(C)cc3)C2=O)cc1 (stereo not drawn) [4k] | 11.5 ± 0.85 µM | > 50 µM | > 50 µM | 
Cc1ccc(NC2=CC(c3ccc(C)cc3)N(c3ccc(C)cc3)C2=O)cc1 (stereo not drawn) [4c] | 21 ± 1.64 µM | > 50 µM | > 50 µM | melting point: 210 to 213 °C
Cc1ccc(NC2=CC(C(F)(F)F)N(c3ccc(C)cc3)C2=O)cc1 (stereo not drawn) [4u] | > 50 µM |  | > 50 µM | IC50 [2]: > 50 µM
Cc1ccc(NC2=CC(/C=C/c3ccccc3)N(c3ccc(C)cc3)C2=O)cc1 (stereo not drawn) [4r] | ~10 µM | 18.2 ± 0.81 µM | ~10 µM | IC50 ([1]; A549 cell line, CCK-8, read-out: IC50 A549): 10.3 ± 0.8 µM; IC50 ([4]; read-out: IC50 SKOV3, SKOV3 cell line, CCK-8): 9.59 ± 0.82 µM
CCOP(=O)(CC1C=C(Nc2ccc(OC)cc2)C(=O)N1c1ccc(OC)cc1)OCC (stereo not drawn) [6c] |  |  |  | IC50 [1, 9]: 6.84 ± 0.22 µM; IC50 ([3]; MRC5, read-out: IC50 MRC5): > 50 µM; Cytotoxic activity against SKOV3 cell line, in words [4]: did not show any cytotoxicity; IC50 [4, 10]: > 50 µM
Cc1ccc(NC2=CC(c3cccc(C)c3)N(c3ccc(C)cc3)C2=O)cc1 (stereo not drawn) [4d] | 31.2 ± 1.04 µM | > 50 µM | > 50 µM | 
COc1ccc(NC2=CC(c3ccc([N+](=O)[O-])cc3)N(c3ccc(OC)cc3)C2=O)cc1 (stereo not drawn) [6b] | 31.5 ± 1.37 µM | > 50 µM | > 50 µM | IC50 [2]: > 50 µM
CCOP(=O)(C[C@@H]1C=C(Nc2ccc(C)cc2)C(=O)N1c1ccc(C)cc1)OCC [(S)-4v] |  |  |  | IC50 [1, 11]: 10.5 ± 0.8 µM
Cc1ccc(\N=C(/C=C/C=C/c2ccc(C(F)(F)F)cc2)C(=O)Nc2ccc(C)cc2)cc1 [20b] | 9.77 ± 0.17 µM | > 50 µM | > 50 µM | 
O=C1C(Nc2cccc(Cl)c2)=CC(c2ccc([N+](=O)[O-])cc2)N1c1cccc(Cl)c1 (stereo not drawn) [compound 9] | 8.37 ± 1.27 µM | 23.8 ± 1.75 µM | 16.1 ± 0.81 µM | 
COC(=O)C1=C(Nc2ccc(C)cc2)C(=O)N(c2ccc(C)cc2)C1c1ccccc1 (stereo not drawn) [5c] |  | > 50 µM |  | melting point: 179 to 181 °C
Cc1ccc(NC2=CC(CC(C)C)N(c3ccc(C)cc3)C2=O)cc1 (stereo not drawn) [4p] | 20.1 ± 2 µM | 24.1 ± 1.64 µM | > 50 µM | melting point: 178 to 179 °C
Cc1ccc(NC2=CC(c3ccc(F)cc3)N(c3ccc(C)cc3)C2=O)cc1 (stereo not drawn) [4f] | 10.7 ± 1.21 µM | > 50 µM | 23.5 ± 0.75 µM | 
Cc1ccc(NC2=CC(CP(=O)(c3ccccc3)c3ccccc3)N(c3ccc(C)cc3)C2=O)cc1 (stereo not drawn) [4w] | 5.67 ± 0.9 µM | 30.1 ± 0.49 µM | 10.8 ± 0.88 µM | IC50 [2]: 28.1 ± 1.47 µM
O=C1C(Nc2ccc(Br)cc2)=CC(c2ccc([N+](=O)[O-])cc2)N1c1ccc(Br)cc1 (stereo not drawn) [8a] | > 50 µM |  | > 50 µM | 
Cc1ccc(NC2=C(Cc3ccccc3)C(c3ccc([N+](=O)[O-])cc3)N(c3ccc(C)cc3)C2=O)cc1 (stereo not drawn) [5b] | 9.92 ± 1.15 µM | 47.6 ± 1.67 µM | > 50 µM | 
O=C1C(Nc2ccccc2F)=CC(c2ccc([N+](=O)[O-])cc2)N1c1ccccc1F (stereo not drawn) [compound 10] | 4.36 ± 0.51 µM | > 50 µM | 5.55 ± 0.62 µM | 
